Assay results taken from US20030130180A1, “Utilization of an aminopeptidase inhibitor” (priority 2000, published 2003).

Tested on: Karpas cells
Test: Detection of surface protein combinations of the protein network on untreated (V1) and actinonin-treated (V2) Karpas cells
Assay type: cell-based
Settings: for V2 no. of cells In 1/1OOO / V2 No. of cells In 1/1000: actinonin-treated Karpas cells (V2)
Excerpt: Principally, detecting of the surface protein combinations may comprise procedural steps of an automated method for determining molecular classes, molecular groups or molecular parts in a solid or liquid object according to DE 197 09 348 C. In these steps, surface proteins may be examined and measured in one and the same object, i.e. in a sample of immune cells and/or tumor cells for example, by sequentially applying reagent solutions Yn (n=1,2,3, . . . N) by means of an automated apparatus, said procedural steps being: I. taking a first reagent solution Y1 from a vessel containing the reagent solution, II. applying said reagent solution Y1 to the object which is on an object slide, III. allowing the reagent solution to react for an automatically set period of time, IV. recording at least one individual labeling pattern of the object previously labeled with said first reagent solution Y1, V. repeating steps I-IV by applying said first reagent solution Y1 or a second reagent solution Y2 or a mixture of said first and second reagent solutions, and VI. repeating steps I to V with further reagent solutions Yn (n=2,3, . . . N) or a mixture thereof and whereby the labeling distribution patterns obtained in each cycle of the method are turned into a complex molecular combination pattern of the object to be examined by computer-aided image overlay. From this combination pattern, information may be gained on the presence of the above mentioned proteins, thus also allowing detection of the surface protein combinations, if the reagent solutions used contain labeled substances directed against the proteins in question. In numerous examinations, it was possible to identify the 30 cell surface proteins already listed above which belong to a specific protein network controlling the early polarization stages of tumor cells and immune cells. In a further examination, surface protein combinations of this protein network of Karpas cells were detected, both in untreated form and after treatment with the aminopeptidase inhibitor actinonin. For this purpose, two groups V1 and V2 of Karpas cells were formed, with the cells of group Vl remaining untreated, while the cells of group V2 were treated with actinonin. Table 2 lists those surface protein combinations which are present both in the actinonin-treated cells and in the untreated cells. However, this table and the further tables 3 and 4 only give examples of 18 of the 30 proteins, with the detected proteins being designated 1 and the non-detected proteins being designated 0. The proteins are continuously numbered 1 to 18, with the nomenclature being notable from table 1. [table] The cell numbers stated in tables 2 to 4 refer to each 1,000 cells examined in groups V1 and V2. Table 3 lists the surface protein combinations which only occur in the untreated Karpas cells and are never found in the actinonin-treated Karpas cells. The number of protein combinations listed in this table 3 amounts to 131. Finally, table 4 exclusively lists those surface protein combinations which occur exclusively in the actinonin-treated Karpas cells. It may be gathered from tables 2 to 4 that, if one examines merely 18 proteins of the 30 proteins, a total of 394 different surface protein combinations will occur, with a total of 334 different combinations occurring in the untreated cells and a total of 263 different combinations being detected in the treated cells.

CCCCC[C@H](CC(=O)NO)C(=O)N[C@H](C(=O)N1CCC[C@H]1CO)C(C)C [actinonin]
0.3 1/1OOO: V2 no. of cells In 1/1OOO (protein code No. 155, proteins 1-18 binary 111000011100011100) | V2 no. of cells In 1/1OOO (protein code No. 156, proteins 1-18 binary 010000001101000000) | V2 no. of cells In 1/1OOO (protein code No. 157, proteins 1-18 binary 001000010001000100) | V2 no. of cells In 1/1OOO (protein code No. 173, proteins 1-18 binary 011100011100011100)
specific blocking of cell polarization: effect of the modification of surface protein combinations on cell polarization (actinonin-treated Karpas cells)
0.0 1/1000: V2 No. of cells In 1/1000 (surface protein combination No. 3, binary code proteins 1-18: 011100011101011100, untreated V1: 0.8) | V2 No. of cells In 1/1000 (surface protein combination No. 4, binary code proteins 1-18: 101000010011011000, untreated V1: 0.7) | V2 No. of cells In 1/1000 (surface protein combination No. 5, binary code proteins 1-18: 001000110101011000, untreated V1: 0.7) | V2 No. of cells In 1/1000 (surface protein combination No. 6, binary code proteins 1-18: 000100000000001100, untreated V1: 0.7) | V2 No. of cells In 1/1000 (surface protein combination No. 7, binary code proteins 1-18: 101000011111011000, untreated V1: 0.6) | V2 No. of cells In 1/1000 (surface protein combination No. 8, binary code proteins 1-18: 001000000010000000, untreated V1: 0.6) | V2 No. of cells In 1/1000 (surface protein combination No. 9, binary code proteins 1-18: 111100011101011100, untreated V1: 0.5) | V2 No. of cells In 1/1000 (surface protein combination No. 10, binary code proteins 1-18: 001100011101000000, untreated V1: 0.5) | V2 No. of cells In 1/1000 (surface protein combination No. 11, binary code proteins 1-18: 000000011111001000, untreated V1: 0.5) | V2 No. of cells In 1/1000 (surface protein combination No. 12, binary code proteins 1-18: 111000011101011100, untreated V1: 0.4) | V2 No. of cells In 1/1000 (surface protein combination No. 13, binary code proteins 1-18: 110000001100001000, untreated V1: 0.4) | V2 No. of cells In 1/1000 (surface protein combination No. 14, binary code proteins 1-18: 101100011111001000, untreated V1: 0.4) | V2 No. of cells In 1/1000 (surface protein combination No. 15, binary code proteins 1-18: 101000010001011000, untreated V1: 0.4) | V2 No. of cells In 1/1000 (surface protein combination No. 16, binary code proteins 1-18: 100100000100011000, untreated V1: 0.4) | V2 No. of cells In 1/1000 (surface protein combination No. 17, binary code proteins 1-18: 100100000001001100, untreated V1: 0.4) | V2 No. of cells In 1/1000 (surface protein combination No. 18, binary code proteins 1-18: 100000000000011000, untreated V1: 0.4)
60: number of surface protein combinations occurring exclusively in the actinonin-treated Karpas cells (Table 4, 18 proteins)
203: number of surface protein combinations present both in actinonin-treated and untreated cells (Table 2, 18 proteins)
0.1 1/1OOO: V2 no. of cells In 1/1OOO (protein code No. 149, proteins 1-18 binary 000100010111001000) | V2 no. of cells In 1/1OOO (protein code No. 150, proteins 1-18 binary 000000010101011000) | V2 no. of cells In 1/1OOO (protein code No. 162, proteins 1-18 binary 011100011101011000) | V2 no. of cells In 1/1OOO (protein code No. 163, proteins 1-18 binary 011000011100011100) | V2 no. of cells In 1/1OOO (protein code No. 164, proteins 1-18 binary 010000001101001000) | V2 no. of cells In 1/1OOO (protein code No. 165, proteins 1-18 binary 001000010001001100) | V2 no. of cells In 1/1OOO (protein code No. 174, proteins 1-18 binary 111100001100011100) | V2 no. of cells In 1/1OOO (protein code No. 175, proteins 1-18 binary 101100011101011000) | V2 no. of cells In 1/1OOO (protein code No. 176, proteins 1-18 binary 101000010011001000) | V2 no. of cells In 1/1OOO (protein code No. 177, proteins 1-18 binary 100000000000001000) | V2 no. of cells In 1/1OOO (protein code No. 178, proteins 1-18 binary 000100010101011000) | V2 no. of cells In 1/1OOO (protein code No. 179, proteins 1-18 binary 000000001101001000) | V2 no. of cells In 1/1OOO (protein code No. 187, proteins 1-18 binary 111000001100001000) | V2 no. of cells In 1/1OOO (protein code No. 188, proteins 1-18 binary 101000110111011100) | V2 no. of cells In 1/1OOO (protein code No. 189, proteins 1-18 binary 011100011100001100) | V2 no. of cells In 1/1OOO (protein code No. 190, proteins 1-18 binary 011100011001001000) | V2 no. of cells In 1/1OOO (protein code No. 191, proteins 1-18 binary 010000001111001000) | V2 no. of cells In 1/1OOO (protein code No. 192, proteins 1-18 binary 001100011111011100) | V2 no. of cells In 1/1OOO (protein code No. 193, proteins 1-18 binary 001100010011000000) | V2 no. of cells In 1/1OOO (protein code No. 194, proteins 1-18 binary 001000110011011000) | V2 no. of cells In 1/1OOO (protein code No. 195, proteins 1-18 binary 001000010011001100) | V2 no. of cells In 1/1OOO (protein code No. 198 (first line so numbered, r203), proteins 1-18 binary 001000010010000000)
263: number of different surface protein combinations detected in the treated cells (18 of the 30 proteins examined, untreated cells: 334, overall 394)
0.2 1/1OOO: V2 no. of cells In 1/1OOO (protein code No. 151, proteins 1-18 binary 011000001101001000) | V2 no. of cells In 1/1OOO (protein code No. 152, proteins 1-18 binary 010000011101001000) | V2 no. of cells In 1/1OOO (protein code No. 153, proteins 1-18 binary 001100010111011100) | V2 no. of cells In 1/1OOO (protein code No. 154, proteins 1-18 binary 000000001000001000) | V2 no. of cells In 1/1OOO (protein code No. 162 (second line so numbered, r189), proteins 1-18 binary 010000001100011000) | V2 no. of cells In 1/1OOO (protein code No. 166, proteins 1-18 binary 111100111111011100) | V2 no. of cells In 1/1OOO (protein code No. 167, proteins 1-18 binary 111100001100001100) | V2 no. of cells In 1/1OOO (protein code No. 168, proteins 1-18 binary 011000011100000000) | V2 no. of cells In 1/1OOO (protein code No. 169, proteins 1-18 binary 001100010000001000) | V2 no. of cells In 1/1OOO (protein code No. 170, proteins 1-18 binary 001100000001001000) | V2 no. of cells In 1/1OOO (protein code No. 171, proteins 1-18 binary 001000011000000000) | V2 no. of cells In 1/1OOO (protein code No. 172, proteins 1-18 binary 000000010001011000) | V2 no. of cells In 1/1OOO (protein code No. 180, proteins 1-18 binary 111100011111011000) | V2 no. of cells In 1/1OOO (protein code No. 181, proteins 1-18 binary 101100110101011000) | V2 no. of cells In 1/1OOO (protein code No. 183, proteins 1-18 binary 001100010100001000) | V2 no. of cells In 1/1OOO (protein code No. 184, proteins 1-18 binary 001000011011011000) | V2 no. of cells In 1/1OOO (protein code No. 185, proteins 1-18 binary 001000011011000000) | V2 no. of cells In 1/1OOO (protein code No. 186, proteins 1-18 binary 000000011011000000)
0.5 1/1OOO: V2 no. of cells In 1/1OOO (protein code No. 158, proteins 1-18 binary 100100000000001000) | V2 no. of cells In 1/1OOO (protein code No. 159, proteins 1-18 binary 010000011001000000) | V2 no. of cells In 1/1OOO (protein code No. 160, proteins 1-18 binary 001000010101011100) | V2 no. of cells In 1/1OOO (protein code No. 161, proteins 1-18 binary 000000011001001000)
131: number of surface protein combinations occurring only in untreated Karpas cells, never found in actinonin-treated cells (Table 3, 18 proteins)
